Assay results published in ChEMBL document CHEMBL1201862, “PubChem BioAssay data set” (2004).
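Each compound was tested at five concentrations against cells in 96-well plates for 48 hours. At the GI50, growth is halved.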 The source made the active and inactive calls. Rule as the data show it: active = GI50 up to about 1.1 µM and inactive = higher.

Experiments:
Test in all cases: growth of human tumour cells (NCI), 48 h
[1] = test system: A498
[2] = test system: U-251
[3] = test system: A549
[4] = test system: T47D
[5] = test system: DU-145
[6] = test system: SN12C
[7] = test system: NCI-H522
[8] = test system: CCRF-CEM
[9] = test system: SK-MEL-28
[10] = test system: HCC 2998
[11] = test system: KM12
[12] = test system: NCI-H23
[13] = test system: NCI-H460
[14] = test system: HOP-62
[15] = test system: HCT-15
[16] = test system: SNB-75
[17] = test system: NCI/ADR-RES
[18] = test system: SF-539
[19] = test system: UACC-62
[20] = test system: OVCAR-4

Compound	GI50 [1]	GI50 [2]	GI50 [3]	GI50 [4]	GI50 [5]	GI50 [6]	GI50 [7]	GI50 [8]	GI50 [9]	GI50 [10]	GI50 [11]	GI50 [12]	GI50 [13]	GI50 [14]	GI50 [15]	GI50 [16]	GI50 [17]	GI50 [18]	GI50 [19]	GI50 [20]
CCOC(=O)N1CCN(C(=O)Nc2cccc3ccccc23)CC1	> 10 µM (inactive)	> 10 µM (inactive)	> 10 µM (inactive)	> 10 µM (inactive)	> 10 µM (inactive)	> 10 µM (inactive)	> 10 µM (inactive)	> 10 µM (inactive)	> 10 µM (inactive)	> 10 µM (inactive)	> 10 µM (inactive)	> 10 µM (inactive)	> 10 µM (inactive)	> 10 µM (inactive)	> 10 µM	> 10 µM (inactive)	> 10 µM (inactive)	> 10 µM (inactive)	> 10 µM (inactive)	> 10 µM (inactive)
OCC(CO)CC1COc2ccccc2O1 (stereo not drawn)	> 10 µM (inactive)	> 10 µM (inactive)	> 10 µM (inactive)	> 10 µM (inactive)	> 10 µM (inactive)	> 10 µM (inactive)	> 10 µM (inactive)	> 10 µM (inactive)	> 10 µM (inactive)	> 10 µM (inactive)	> 10 µM (inactive)	> 10 µM (inactive)	> 10 µM (inactive)	> 10 µM (inactive)	> 10 µM	> 10 µM (inactive)	> 10 µM (inactive)	> 10 µM (inactive)	> 10 µM (inactive)	> 10 µM (inactive)
O=C1C2=C(C3=NCCc4c[nH]c1c43)C1(C=C(Br)C(O)C(Br)=C1)CCN2 (stereo not drawn)	9.95 µM (inactive)	2.26 µM (inactive)	3.15 µM (inactive)			1.29 µM (inactive)	0.284 µM (active)	1.96 µM (inactive)	7.69 µM (inactive)	1.18 µM (inactive)	1.82 µM (inactive)	0.792 µM (active)	2.33 µM (inactive)	17.9 µM (inactive)	1.16 µM	10 µM (inactive)	0.421 µM (active)	2.05 µM (inactive)	0.851 µM (active)	1.47 µM (inactive)
CC(C)C1OC(=O)/C=C/C=C/C=C/C=C/C=C/CC(O)C(C)C(O)CC(O)CC(O)CC(O)CC(O)CC(O)CC(O)/C=C/C1C (stereo not drawn)	> 100 µM (inactive)	> 100 µM (inactive)	> 100 µM (inactive)				> 100 µM (inactive)	> 100 µM (inactive)	> 100 µM (inactive)	> 100 µM (inactive)	> 100 µM (inactive)	> 100 µM (inactive)	> 100 µM (inactive)	> 100 µM (inactive)	> 100 µM	> 100 µM (inactive)	> 100 µM (inactive)	> 100 µM (inactive)	> 100 µM (inactive)	> 100 µM (inactive)
CNC(=O)SCC(NC(=O)CCC(N)C(=O)O)C(=O)NCC(=O)O (stereo not drawn)	> 100 µM (inactive)	> 86.7 µM (inactive)	> 100 µM (inactive)			> 89.7 µM (inactive)	> 86.5 µM (inactive)	> 50 µM (inactive)	> 100 µM (inactive)	> 100 µM (inactive)	> 100 µM (inactive)	> 100 µM (inactive)	> 100 µM (inactive)	> 100 µM (inactive)	> 78 µM	> 100 µM (inactive)	> 100 µM (inactive)	> 96.4 µM (inactive)	98.9 µM (inactive)	> 100 µM (inactive)
CC(C)=CCc1c(C)cc2cc3c(c(O)c2c1O)C(=O)C=C(O)C3(CC=C(C)C)C/C=C(\C)CO (stereo not drawn)	8.81 µM (inactive)	29.6 µM (inactive)	33.3 µM (inactive)			31.1 µM (inactive)	27.9 µM (inactive)	11.5 µM (inactive)	46.2 µM (inactive)	45.2 µM (inactive)	41.9 µM (inactive)	37.4 µM (inactive)	27.4 µM (inactive)	36.8 µM (inactive)	28 µM	48.3 µM (inactive)	47.9 µM (inactive)	39.1 µM (inactive)	32.3 µM (inactive)	37 µM (inactive)
CCOC(=O)C1(C(=O)OCC)CSC1	42 µM (inactive)	> 100 µM (inactive)	> 100 µM (inactive)	> 100 µM (inactive)	> 100 µM (inactive)	> 100 µM (inactive)	> 100 µM (inactive)	> 100 µM (inactive)	> 100 µM (inactive)	0.192 µM (active)	> 100 µM (inactive)	> 100 µM (inactive)	0.263 µM (active)		> 100 µM	> 100 µM (inactive)	> 100 µM (inactive)			> 100 µM (inactive)
CC(=O)OC/C=C\Cn1nc(Br)c(=O)[nH]c1=O	19.9 µM (inactive)	10.5 µM (inactive)	16.7 µM (inactive)	13.9 µM (inactive)	15.7 µM (inactive)	23.2 µM (inactive)	2.81 µM (inactive)	5.24 µM (inactive)	16.4 µM (inactive)	15.7 µM (inactive)	15.5 µM (inactive)	15.1 µM (inactive)	13.2 µM (inactive)	16.3 µM (inactive)	13.1 µM	15.1 µM (inactive)	17.3 µM (inactive)	11.2 µM (inactive)		
O=C1c2ccccc2C(=O)N1CC(CN1C(=O)c2ccccc2C1=O)(C(=O)OCc1ccccc1)C(=O)OCc1ccccc1	> 100 µM (inactive)	> 100 µM (inactive)		> 100 µM (inactive)	> 100 µM (inactive)	> 100 µM (inactive)	> 100 µM (inactive)	6.11 µM (inactive)	> 100 µM (inactive)	> 100 µM (inactive)	> 100 µM (inactive)	> 100 µM (inactive)	> 100 µM (inactive)	> 100 µM (inactive)	> 100 µM	> 100 µM (inactive)	> 100 µM (inactive)		> 100 µM (inactive)	
C=CCN1C(=O)/C(=C/c2cccs2)N=C1SC1OC(COC(=O)c2ccccc2)C(OC(=O)c2ccccc2)C1OC(=O)c1ccccc1 (stereo not drawn)	> 100 µM (inactive)	> 100 µM (inactive)			> 100 µM (inactive)		11.4 µM (inactive)	53.5 µM (inactive)	> 100 µM (inactive)	> 100 µM (inactive)	> 100 µM (inactive)	> 100 µM (inactive)	> 100 µM (inactive)	> 100 µM (inactive)	> 100 µM	> 100 µM (inactive)	> 100 µM (inactive)	> 100 µM (inactive)	> 100 µM (inactive)	> 100 µM (inactive)
NC(=O)Nc1ccc(C(=O)NCCCNC(=O)c2ccc(NC(N)=O)cc2)cc1	> 100 µM (inactive)	> 100 µM (inactive)	> 100 µM (inactive)	> 100 µM (inactive)	> 100 µM (inactive)		> 100 µM (inactive)	> 100 µM (inactive)	> 100 µM (inactive)	> 100 µM (inactive)	> 100 µM (inactive)	> 100 µM (inactive)	> 100 µM (inactive)	> 100 µM (inactive)	> 100 µM	> 100 µM (inactive)	> 100 µM (inactive)	> 100 µM (inactive)	> 100 µM (inactive)	> 100 µM (inactive)
O=C1C=C(N2CC2)C(=O)C=C1N1CC1	0.0318 µM (active)	0.229 µM (active)		1.05 µM (active)	0.339 µM (active)	0.122 µM (active)	0.0652 µM (active)	0.0291 µM (active)	0.29 µM (active)	0.307 µM (active)	0.824 µM (active)	0.0904 µM (active)	0.0401 µM (active)	0.136 µM (active)	0.102 µM	0.385 µM (active)	0.757 µM (active)	0.0931 µM (active)	0.178 µM (active)	0.216 µM (active)
